The values that follow come from US10617672B2, “Liposome composition co-encapsulating doxorubicin and a prodrug of mitomycin C” (LIPOMEDIX PHARMACEUTICALS LTD., priority 2015, dated 2020).

Assay [1] deals with T-24 bladder cancer cells. Nature of the assay: Cell uptake of doxorubicin and mitomycin C prodrug conjugate. The class given is cell-based, human. Particulars: T-24 cells, 3 hours of incubation; doxorubicin 6.5 μmoles/L (3.7 μg/mL), MLP 5 μmoles/L (5.7 μg/mL).
Description: In brief, the liposomal compositions or free doxorubicin were incubated for 3 hours with the cell lines at a doxorubicin concentration of 6.5 μmoles/L (3.7 μg/mL) and final mitomycin C lipid prodrug conjugate concentration of 5 μmoles/L (5.7 μg/mL).
Cell uptake studies were done as follows. 1×10^6 cells were incubated for 3 hours with the various test agents at a doxorubicin concentration of 6.5 μmoles/mL (3.7 μg/mL) and final mitomycin C lipid prodrug conjugate concentration of 5 μmoles/mL (5.7 μg/mL) and a phospholipid concentration similar to that of liposomes with entrapped doxorubicin (40 nanomoles/mL).
Assay [2] deals with IGrov-1 ovarian carcinoma cells. In words: In vitro cytotoxicity, methylene blue staining, 72 h. The class given is cell-based, human. Particulars: IGrov-1 cells, 72 hours at 37° C. The method, then: (§1) For comparison, liposomes with entrapped doxorubicin with ammonium sulfate gradient and a coating of polyethyleneglycol (PEG) (available under the tradename DOXIL®), liposomes with the mitomycin C prodrug conjugate incorporated into the lipid bilayer and a coating of PEG (sometimes referred to in the literature by the tradename PROMITIL®) were also evaluated in the cell lines, along with free doxorubicin and liposomes with encapsulated doxorubicin with ammonium alendronate gradient and a coating of PEG (U.S. 2014/0328899, incorporated by reference herein).
(§2) In the cytotoxicity assay, cells were seeded in 96-multiwell plates. After overnight incubation, the drugs or liposome compositions were added at various concentrations and cells were incubated further for a total exposure of 72 hrs. Cell growth was evaluated colorimetrically with methylene blue staining and growth rates and IC50 values were calculated as known in the literature.

The test system of assay [3] is N-87 gastric carcinoma cells. The assay is described as above. Particulars: N-87 cells, 72 hours at 37° C. It counts as cell-based, human. Here is the method: as §1, §2
The test system of assay [4] is T24 bladder cancer carcinoma cells. The assay is described as above. It counts as cell-based, human. Particulars: 72 hours at 37° C. The method, then: as §1, §2
The subject of assay [5] is NCI/ADR cells. Described as above. It counts as cell-based. Particulars: 72 hours at 37° C. Here is the method:
as §1, §2

Assay [6] deals with multidrug resistant M109R lung carcinoma cells. The description is as above. It counts as cell-based. Particulars: 72 hours at 37° C. Here is the method:
as §1, §2

Assay [7] has as its system 4T1 breast tumor. In words: Antitumor activity in mouse 4T1 breast tumor model. Particulars: BALB/c mice, single i.v. dose eight days after inoculation. It counts as in vivo. Here is the method:
BALB/c mice were inoculated intravenously with 100,000 cells 4T1 breast cancer cells to produce tumors. Three were approximately eight tumor-bearing mice in each of the treatment groups.
Eight days after inoculation, the test formulations were administered intravenously.

Setting [8] is: as doxorubicin concentration, read-out: IC50 of doxorubicin.
Where [9] appears, read: as mitomycin C concentration, read-out: IC50 of Mitomycin C.

Each structure is given as a SMILES string. Where two headings read alike, the source gives them in different places.

On to `COc1cccc2c1C(=O)c1c(O)c3c(c(O)c1C2=O)C[C@@](O)(C(=O)CO)C[C@@H]3O[C@H]1C[C@H](N)[C@H](O)[C@H](C)O1` [free doxorubicin, doxorubicin], for which, in assay [1], the “Doxorubicin Concentration” value worked out at 739 ng/10^6 cells. Moreover, the IC50 in assay [2] (setting [8]) came to 1100 nM; in assay [3] (setting [8]) it was 190 nM; in assay [4] (as doxorubicin concentration, read-out: C50 of doxorubicin) it was 100 nM; in assay [5] (setting [8]) it was 2500 nM; in assay [6] (setting [8]), 8700 nM. Also, the “time after treatment at which tumor approached 5.5 mm” value in assay [7] turned out to be 10 days. Moreover, the “tumor growth (FIG. 15), in words” value in assay [7] (doses in Example 7) is “continued and rapid tumor growth”.

For the compound `CO[C@@]12[C@H](COC(N)=O)C3=C(C(=O)C(C)=C(N)C3=O)N1C[C@@H]1N[C@@H]12` [free mitomycin C, mitomycin C], the IC50 worked out at 700 nM in assay [2] (setting [9]); 180 nM in assay [3] (setting [9]); 50 nM in assay [4] (setting [9]); 400 nM in assay [5] (setting [9]); 300 nM in assay [6] (setting [9]).
